Patent US5145850A, “Imidazopyridazines, their production and use” (Takeda Chemical Industries, Ltd., priority 1990, dated 1992)

tested on: Platelet Activating Factor (PAF)-induced bronchoconstriction; test: Effect on Bronchoconstriction Induced by Platelet Activating Factor (PAF) in Guinea Pigs (Konzett-Rossler method); format: in vivo, Male Hartley guinea pigs; details: guinea pig; drug 10 mg/Kg orally 1 hour before PAF (1 μg/Kg, i.v.); recorded for 15 minutes
Protocol: Effect on Bronchoconstriction Induced by Platelet Activating Factor (PAF) in Guinea Pigs
Male Hartley guinea pigs (body weight 500 g) were used. The bronchoconstriction reaction in the guinea pig which has intravenously received PAF (1 μg/Kg) was measured by the Konzett-Rossler method. The trachea of the guinea pig with its back fixed was incised under anesthesia condition with urethane (intraperitoneal injection, 1.50 g/Kg) and connected with an artificial respirator via a cannula. The branch of the tracheal cannula was connected with a transducer (7020 type, Ugobasile). Air was sent to the trachea at the volume of 3-7 ml/stroke, at the stroke of 70 strokes/min. at load pressure of 10 cm H2 O to lung and overflowed air volume was recorded with Rectegraph (Recte-Hori-8s, Sanei Sokuki) via the transducer. After the guinea pig was treated with galamine (1 mg/Kg, i.v.), PAF (1 μg/Kg) dissolved in a physiological saline solution was administered to the guinea pig via a jugular venous cannula and the bronchoconstriction reaction induced thereby was recorded for 15 minutes. The drug (10 mg/Kg) suspended in a 5% gum arabic solution was administered orally 1 hour before the injection of PAF.

First: NS(=O)(=O)CC1(COc2ccc3nccn3n2)CCCCC1 [Example 1, 6-[(2,2-pentamethylene-3-sulfamoylpropyl)oxy]imidazo[1,2-b]pyridazine]
Second: NS(=O)(=O)CC1(COc2ccc3nccn3n2)CCCC1 [Example 2, 6-[(2,2-tetramethylene-3-sulfamoylpropyl)oxy]imidazo[1,2-b]pyridazine]
The “Inhibition (%) of PAF-induced bronchoconstriction” value (from here on “Inhibition (%)”) of the first is lower: 72% for the first, 78% for the second.

Compared with `NS(=O)(=O)CC1(COc2ccc3nccn3n2)CCC1` [Example 3, 6-[(2,2-trimethylene-3-sulfamoylpropyl)oxy]imidazo[1,2-b]pyridazine], `NS(=O)(=O)CC1(COc2ccc3nccn3n2)CC1` [Example 4, 6-[(2,2-dimethylene-3-sulfamoylpropyl)oxy]imidazo[1,2-b]pyridazine] is lower in “Inhibition (%)” value: 58% for the first, 48% for the second.

Compared with `NS(=O)(=O)CC1(COc2ccc3nccn3n2)COC1` [Example 9, 6-[[2,2-(2-oxatrimethylene)-3sulfamoylpropyl]oxy]imidazo[1,2-b]pyridazine], `NS(=O)(=O)CC1(CSc2ccc3nccn3n2)CCC1` [Example 13, 6-[(2,2-trimethylene-3-sulfamoylpropyl)thio]imidazo[1,2-b]pyridazine] is lower in “Inhibition (%)” value: 51% for the first, 40% for the second.
